{
  "source": "patent US8524750B2",
  "about": "“(Pyrazol-3-yl)-1,3,4-thiadiazol-2-amine and (pyrazol-3-yl)-1,3,4-thiazol-2-amine compounds” (Glaxo Group Limited, priority 2009, dated 2013)",
  "key": {"[1]": {"system": "Mycobacterium tuberculosis H37Rv", "experiment": "Mycobacterium tuberculosis H37Rv Inhibition Assay (Whole Cell Assay)", "format": "cell-based", "settings": "ATCC 25618 / H37Rv, H37Rv strain (ATCC25618), Middlebrook 7H9, six days at 37° C., resazurin fluorescence after 48 hours"}, "[2]": {"target": "T1, Mycobacterium tuberculosis InhA (Mycobacterium tuberculosis, UniProt P9WGR1)", "T1 construct": "made in house; host or cells: E. coli", "T1 sequence (P9WGR1 whole entry, looked up)": "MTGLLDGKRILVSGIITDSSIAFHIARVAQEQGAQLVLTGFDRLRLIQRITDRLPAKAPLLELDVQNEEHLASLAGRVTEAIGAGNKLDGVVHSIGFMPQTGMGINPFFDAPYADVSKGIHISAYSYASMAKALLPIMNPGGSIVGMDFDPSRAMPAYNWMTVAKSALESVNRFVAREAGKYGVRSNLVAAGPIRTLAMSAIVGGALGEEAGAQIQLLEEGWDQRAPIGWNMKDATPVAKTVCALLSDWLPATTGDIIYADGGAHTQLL", "experiment": "Mycobacterium tuberculosis InhA Inhibition Assay (Enzyme Assay)", "format": "biochemical", "settings": "5 nM InhA, 50 μM DDCoA, 50 μM NADH, PIPES buffer pH 6.8, initial velocities of NADH consumption", "experimental": "Mycobacterium tuberculosis InhA Inhibition Assay (Enzyme Assay)\nInhA is able to reduce 2-trans enoyl-CoA esters with concomitant oxidation of NADH to NAD^+. The assay format is based on the kinetic detection of NADH consumption.\nAssay for InhA inhibition is carried out with mycobacterium recombinant protein expressed and purified form E. coli. Standard assay conditions for the determination of kinetic constants and inhibitors activity use 5 nM of InhA, 50 μM of Dodecenoyl-CoA synthesized and purified as described by Quernard et al (DDCoA) and 50 μM of NADH as substrates, and it is carried out in 30 mM PIPES buffer pH 6.8, containing 0.05% of BSA. […] Triclosan is used as positive control in every experiment. One μl of compounds is added to the wells containing 25 μl of the DDCoA+NADH mix, the reaction is started by adding 50 μl of the enzyme solution. Fluorescence from NADH is followed at room temperature during 20 minutes in a fluorescent plate reader (excitation at 340 nm; emission at 480 nm). IC50 values are determined using initial velocities of NADH consumption.\nQuernard A, Sacchettini J C, Dessen A, et al. Enzymatic characterization of the target for isoniazid in Mycobacterium tuberculosis. Biochemistry 1995; 34:8235-41."}},
  "note": "Several values for one entry are separate records, joined by “and”; a condition that tells them apart may be missing. Equal values may be shown once. Read-outs that look alike come from different tables or passages of the source.",
  "data": [
    {"molecule": "Cc1cc(C)n(Cc2nnc(Nc3ccn(Cc4ccccc4Cl)n3)s2)n1", "note": "[Example 56, N-{1-[(2-chlorophenyl)methyl]-1H-pyrazol-3-yl}-5-[(3,5-dimethyl-1H-pyrazol-1-yl)methyl]-1,3,4-thiadiazol-2-amine]", "values": [
      {"measurement": "MIC", "setting": "[1]", "result": "> 10", "unit": "µM"},
      {"measurement": "IC50", "setting": "[2]; read-out: IC50 value", "result": "< 125", "unit": "nM"}
    ]},
    {"molecule": "Cc1cc(C(F)F)nn1C(C)c1nnc(Nc2ccn(Cc3ccccc3Cl)n2)s1", "note": "(centres unmarked) [Example 41, N-{1-[(2-chlorophenyl)methyl]-1H-pyrazol-3-yl}-5-{1-[3-(difluoromethyl)-5-methyl-1H-pyrazol-1-yl]ethyl}-1,3,4-thiadiazol-2-amine]", "values": [
      {"measurement": "MIC", "setting": "[1]", "result": "4 to 10", "unit": "µM"},
      {"measurement": "IC50", "setting": "[2]; read-out: IC50 value", "result": "< 111", "unit": "nM"}
    ]},
    {"molecule": "CCOC(=O)Nc1cccc(Cn2ccc(Nc3nnc(C(C)(O)c4nc(C)cs4)s3)n2)c1F", "note": "(centres unmarked) [Intermediate 121, Ethyl (2-fluoro-3-{[3-({5-[1-hydroxy-1-(4-methyl-1,3-thiazol-2-yl)ethyl]-1,3,4-thiadiazol-2-yl}amino)-1H-pyrazol-1-yl]methyl}phenyl)carbamate]", "values": [
      {"measurement": "MIC", "setting": "[1]", "result": "1 to 4", "unit": "µM"},
      {"measurement": "IC50", "setting": "[2]; IC50 value", "result": "< 99.3", "unit": "nM"}
    ]},
    {"molecule": "Cc1csc(C(C)(O)c2nnc(Nc3ccn(Cc4c(F)cccc4Cl)n3)s2)n1", "note": "(racemic) [Example 30, 1-[5-({1-[(2-chloro-6-fluorophenyl)methyl]-1H-pyrazol-3-yl}amino)-1,3,4-thiadiazol-2-yl]-1-(4-methyl-1,3-thiazol-2-yl)ethanol]", "values": [
      {"measurement": "MIC", "setting": "[1]", "result": "≤ 1", "unit": "µM"},
      {"measurement": "IC50", "setting": "[2]; read-out: IC50 value", "result": "< 111", "unit": "nM"}
    ]},
    {"molecule": "Cc1cc(C)n(C(C)c2nnc(Nc3ccn(Cc4cccc(N)c4C)n3)s2)n1", "note": "(centres unmarked) [Example 27, N-{1-[(3-amino-2-methylphenyl)methyl]-1H-pyrazol-3-yl}-5-[1-(3,5-dimethyl-1H-pyrazol-1-yl)ethyl]-1,3,4-thiadiazol-2-amine]", "values": [
      {"measurement": "MIC", "setting": "[1]", "result": "4 to 10", "unit": "µM"},
      {"measurement": "IC50", "setting": "[2]; read-out: IC50 value", "result": "< 122", "unit": "nM"}
    ]},
    {"molecule": "Cc1ccn([C@H](C)c2nnc(Nc3ccn(Cc4c(F)cccc4Cl)n3)s2)n1", "note": "(single isomer, unassigned) [Example 66]", "values": [
      {"measurement": "MIC", "setting": "[1]", "result": "1 to 4", "unit": "µM"},
      {"measurement": "IC50", "setting": "[2]; read-out: IC50 value", "result": "< 120", "unit": "nM"}
    ]},
    {"molecule": "Cc1cc([N+](=O)[O-])nn1Cc1nnc(Nc2ccn(Cc3ccccc3)n2)s1", "note": "[Example 62, 5-[(5-methyl-3-nitro-1H-pyrazol-1-yl)methyl]-N-[1-(phenylmethyl)-1H-pyrazol-3-yl]-1,3,4-thiadiazol-2-amine]", "values": [
      {"measurement": "MIC", "setting": "[1]", "result": "> 10", "unit": "µM"},
      {"measurement": "IC50", "setting": "[2]; read-out: IC50 value", "result": "252 to 1260", "unit": "nM"}
    ]},
    {"molecule": "Cc1cc(C)n(C(C)c2nnc(Nc3ccn(Cc4cccc(Cl)c4F)n3)s2)n1", "note": "(centres unmarked) [Example 7, N-{1-[(3-chloro-2-fluorophenyl)methyl]-1H-pyrazol-3-yl}-5-[1-(3,5-dimethyl-1H-pyrazol-1-yl)ethyl]-1,3,4-thiadiazol-2-amine]", "values": [
      {"measurement": "MIC", "setting": "[1]", "result": "≤ 1", "unit": "µM"},
      {"measurement": "IC50", "setting": "[2]; read-out: IC50 value", "result": "< 116", "unit": "nM"}
    ]},
    {"molecule": "Cc1cc([N+](=O)[O-])nn1Cc1nnc(Nc2ccn(Cc3ccccc3Cl)n2)s1", "note": "[Example 58, N-{1-[(2-chlorophenyl)methyl]-1H-pyrazol-3-yl}-5-[(5-methyl-3-nitro-1H-pyrazol-1-yl)methyl]-1,3,4-thiadiazol-2-amine]", "values": [
      {"measurement": "MIC", "setting": "[1]", "result": "> 10", "unit": "µM"},
      {"measurement": "IC50", "setting": "[2]; read-out: IC50 value", "result": "232 to 1160", "unit": "nM"}
    ]},
    {"molecule": "Cc1cc(C)n(C(C)c2nnc(Nc3ccn(Cc4ccccc4C)n3)s2)n1", "note": "(centres unmarked) [Example 20, 5-[1-(3,5-dimethyl-1H-pyrazol-1-yl)ethyl]-N-{1-[(2-methylphenyl)methyl]-1H-pyrazol-3-yl}-1,3,4-thiadiazol-2-amine]", "values": [
      {"measurement": "MIC", "setting": "[1]", "result": "1 to 4", "unit": "µM"},
      {"measurement": "IC50", "setting": "[2]; read-out: IC50 value", "result": "< 127", "unit": "nM"}
    ]},
    {"molecule": "Cc1cc([N+](=O)[O-])nn1Cc1nnc(Nc2ccn(Cc3c(Cl)cccc3Cl)n2)s1", "note": "[Example 65, N-{1-[(2,6-dichlorophenyl)methyl]-1H-pyrazol-3-yl}-5-[1-(5-methyl-3-nitro-1H-pyrazol-1-yl)methyl]-1,3,4-thiadiazol-2-amine]", "values": [
      {"measurement": "IC50", "setting": "[2]; read-out: IC50 value", "result": "> 1070", "unit": "nM"}
    ]},
    {"molecule": "Cc1csc([C@](C)(O)c2nnc(Nc3ccn(Cc4c(F)cccc4F)n3)s2)n1", "note": "(single isomer, unassigned) [Example 89]", "values": [
      {"measurement": "IC50", "setting": "[2]; IC50 value", "result": "4.6 nM and < 115 nM"}
    ]},
    {"molecule": "Cc1csc(C(C)(O)c2nnc(Nc3ccn(Cc4cccc(N)c4F)n3)s2)n1", "note": "(centres unmarked) [Example 88, 1-[5-({1-[(3-amino-2-fluorophenyl)methyl]-1H-pyrazol-3-yl}amino)-1,3,4-thiadiazol-2-yl]-1-(4-methyl-1,3-thiazol-2-yl)ethanol]", "values": [
      {"measurement": "IC50", "setting": "[2]; read-out: IC50 value", "result": "< 116", "unit": "nM"}
    ]}
  ]
}
